Source: US20160168126A1, “CHEMICAL COMPOUNDS” (SYNGENTA LIMITED, priority 2013, published 2016)

Tested on: a variety of test species
Test: Post-emergence herbicidal activity (glasshouse, sprayed 8 days after sowing, evaluated after 13 days)
Format: in vivo
Conditions: scale 0-5
Protocol: Seeds of a variety of test species were sown in standard soil in pots. After 8 days cultivation (post-emergence) under controlled conditions in a glasshouse (at 24/16° C., day/night; 14 hours light; 65% humidity), the plants were sprayed with an aqueous spray solution derived from the formulation of the technical active ingredient in acetone/water (50:50) solution containing 0.5% Tween 20 (polyoxyethelyene sorbitan monolaurate, CAS RN 9005-64-5). The test plants were then grown in a glasshouse under controlled conditions (at 24/16° C., day/night; 14 hours light; 65% humidity) and watered twice daily. After 13 days, the test was evaluated (5=total damage to plant; 0=no damage to plant).

Compound	Post-emergence herbicidal damage score, ABUTH (Abutilon theophrasti) (1000 g/ha)	Post-emergence herbicidal damage score, ALOMY (Alopecurus myosuroides) (1000 g/ha)	Post-emergence herbicidal damage score, AMARE (Amaranthus retroflexus) (1000 g/ha)	Post-emergence herbicidal damage score, ECHCG (Echinochloa crus-galli) (1000 g/ha)	Post-emergence herbicidal damage score, SETFA (Setaria faberi) (1000 g/ha)	Post-emergence herbicidal damage score, ZEAMX (Zea mays) (1000 g/ha)	Post-emergence herbicidal damage score, ABUTH (Abutilon theophrasti) (250 g/ha)	Post-emergence herbicidal damage score, ALOMY (Alopecurus myosuroides) (250 g/ha)	Post-emergence herbicidal damage score, AMARE (Amaranthus retroflexus) (250 g/ha)	Post-emergence herbicidal damage score, ECHCG (Echinochloa crus-galli) (250 g/ha)	Post-emergence herbicidal damage score, SETFA (Setaria faberi) (250 g/ha)	Post-emergence herbicidal damage score, ZEAMX (Zea mays) (250 g/ha)
CC1=C(Cl)C(O)N(c2cc(Cc3ccccc3)n(C)n2)C1=O (stereo not drawn) [Compound B32]	5	2	3	3	4	0						
CCn1nc(N2C(=O)C(C)=C(Cl)C2O)cc1C(F)(F)F (stereo not drawn) [Compound C1]	3	3	5	4	0	1						
CCn1nc(N2C(=O)C(C)=C(Cl)C2O)cc1C(C)(C)C (stereo not drawn) [Compound C2]	5	3	4	4	4	0						
CCn1nc(N2C(=O)C(C)=C(Cl)C2O)c2c1C(C)(C)CC2 (stereo not drawn) [Compound C3]	5	4	5	5	5	1						
CC1=C(Cl)C(O)N(c2cc(C(F)(F)F)n(C(C)C)n2)C1=O (stereo not drawn) [Compound C4]	0	0	1	1	1	1						
CC1=C(Cl)C(O)N(c2cc(C(F)(F)F)n(CC(F)(F)F)n2)C1=O (stereo not drawn) [Compound C5]	2	0	1	0	0	3						
CC1=C(Cl)C(O)N(c2cc(C)n(C(F)F)n2)C1=O (stereo not drawn) [Compound C6]	1	0	2	0	2	1						
CC1=C(Cl)C(O)N(c2cc(C#N)n(CC(F)(F)F)n2)C1=O (stereo not drawn) [Compound C7]	3	0	0	0	1	0						
CC1=C(Cl)C(O)N(c2nn(CC(F)(F)F)c(C)c2C#N)C1=O (stereo not drawn) [Compound C8]	0	0	1	0	0	0						
CC1=C(Cl)C(O)N(c2cc(C)n(C(F)(F)F)n2)C1=O (stereo not drawn) [Compound C9]	1	0	1	1	0	1						
CC1=C(Cl)C(O)N(c2nn(C)c(C(C)(C)C)c2C#N)C1=O (stereo not drawn) [Compound D1]	3	2	4	3	1	0						
CC1=C(Cl)C(O)N(c2nn(C)c(C(C)(C)C)c2Cl)C1=O (stereo not drawn) [Compound D2]	3	1	0	2	2	0						
CC1=C(Cl)C(O)N(c2nn(C)c(C(C)(C)CCl)c2Cl)C1=O (stereo not drawn) [Compound D3]	1	0	0	2	1	1						
CCCC1=C(C)C(O)N(c2nn(C)c(C(C)(C)C)c2C#N)C1=O (stereo not drawn) [Compound D4]	4	3	2	2	4	0						
Cn1nc(N2C(=O)C(CCl)=C(Cl)C2O)cc1C(C)(C)C (stereo not drawn) [Compound E1]	4	4	1	5	5	0						
CCCC1=C(Cl)C(O)N(c2cc(C(C)(C)C#N)n(C)n2)C1=O (stereo not drawn) [Compound E2]	4	4	5	5	4	1						
CC1=C(Cl)C(OC(=O)OCC(C)C)N(c2cc(C(C)(C)C)n(C)n2)C1=O (stereo not drawn) [Compound F1]	5	4	5	5	5	3						
CC1=C(Cl)C(OC(=O)Oc2ccccc2)N(c2cc(C(C)(C)C)n(C)n2)C1=O (stereo not drawn) [Compound F2]	5	4	5	5	5	1						
COC1=C(Cl)C(OC(C)=O)N(c2cc(C(C)(C)C)n(C)n2)C1=O (stereo not drawn) [Compound F3, [1-(5-tert-butyl-1-methyl-pyrazol-3-yl)-3-chloro-4-methoxy-5-oxo-2H-pyrrol-2-yl] acetate]	5	5	5	5	5	3						
CC1=C(Cl)C(O)N(c2cc3n(n2)CCC3(C)C)C1=O (stereo not drawn) [Compound G2]							5	5	5	5	5	4
CC1=C(Cl)C(O)N(c2cc3n(n2)CCCC3(C)C)C1=O (stereo not drawn) [Compound G4]	5	5	5	5	5	2						
CC1=C(Cl)C(O)N(c2cc3n(n2)CCSC3(C)C)C1=O (stereo not drawn) [Compound G6]	5	4	5	4	4	0						
CC1=C(Br)C(O)N(c2cc(C(C)(C)C)n(C)n2)C1=O (stereo not drawn) [Compound H1]	5	4	5	5	3	1						
